Assay [1] concerns the target T1, Recombinant human DDR1 (Homo sapiens, UniProt Q08345).
T1 construct: Recombinant human DDR1 (2.5 nM; aa440-876 containing a GST tag)
Put plainly: LanthaScreen Eu Kinase Binding Assay, DDR1. The settings on record: recombinant human DDR1 (2.5 nM; aa440-876, GST tag), Kinase Tracer 178 5 nM, time-resolved fluorescence, at least two independent replicates; read-out: DDR1 pIC50 (converted). The method in brief: (§1)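 GST-tagged kinase domains (DDR1 aa440-876 at 2.5 nM; DDR2 aa427-855 at 1.75 nM) were preincubated 30 min at room temperature with compound in HEPES pH 7.3 buffer. Then 1 nM Eu-anti-GST plus Tracer 178 (5 nM DDR1, 10 nM DDR2) were added; after 60 min, TR-FRET gave IC50 by four-parameter fit, ≥2 replicates.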
On the technique in general: In TR-FRET formats the signal depends on donor and acceptor labels being close together.

Assay [2] concerns the target T2, Recombinant human DDR2 (Homo sapiens, UniProt Q16832).
T2 construct: DDR2 (1.75 nM; aa427-855 containing a GST tag)
T2 sequence (Q16832 427-855): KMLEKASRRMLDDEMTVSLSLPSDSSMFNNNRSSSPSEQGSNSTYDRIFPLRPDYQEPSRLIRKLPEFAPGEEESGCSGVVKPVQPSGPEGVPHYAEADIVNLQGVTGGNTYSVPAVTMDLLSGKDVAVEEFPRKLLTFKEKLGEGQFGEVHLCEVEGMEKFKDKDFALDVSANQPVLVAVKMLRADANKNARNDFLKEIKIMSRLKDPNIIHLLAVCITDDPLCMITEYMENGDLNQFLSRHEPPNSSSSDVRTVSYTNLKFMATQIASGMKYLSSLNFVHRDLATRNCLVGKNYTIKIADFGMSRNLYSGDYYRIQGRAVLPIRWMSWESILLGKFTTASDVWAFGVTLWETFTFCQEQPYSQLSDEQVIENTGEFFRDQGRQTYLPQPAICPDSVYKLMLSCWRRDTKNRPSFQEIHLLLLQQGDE
Put plainly: LanthaScreen Eu Kinase Binding Assay, DDR2. The note with it: recombinant human DDR2 (1.75 nM; aa427-855, GST tag), Kinase Tracer 178 10 nM, time-resolved fluorescence, at least two independent replicates; read-out: DDR2 pIC50 (converted). Summed up: as §1

Some results are limits rather than exact numbers.

T1 sequence (Q08345 440-876 isoform Q08345-2): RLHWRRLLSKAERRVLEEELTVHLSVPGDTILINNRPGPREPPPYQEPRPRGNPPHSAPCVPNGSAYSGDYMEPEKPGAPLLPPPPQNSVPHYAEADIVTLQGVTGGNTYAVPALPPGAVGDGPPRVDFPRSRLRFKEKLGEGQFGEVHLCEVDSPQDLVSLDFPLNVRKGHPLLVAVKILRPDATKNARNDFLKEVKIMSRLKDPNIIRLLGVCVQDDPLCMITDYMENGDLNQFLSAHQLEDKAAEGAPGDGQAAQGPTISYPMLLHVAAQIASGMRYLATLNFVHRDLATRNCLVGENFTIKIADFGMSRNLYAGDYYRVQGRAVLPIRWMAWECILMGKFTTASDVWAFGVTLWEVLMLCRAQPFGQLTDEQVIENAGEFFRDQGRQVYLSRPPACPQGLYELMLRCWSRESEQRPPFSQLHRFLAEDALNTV

As for `Cn1ncc2cc(Nc3cccc4ccn(CC(=O)N5C6CCC5COC6)c(=O)c34)ccc21` [Example 97, 8-[(1-methyl-1H-indazol-5-yl)amino]-2-(2-{3-oxa-8-azabicyclo[3.2.1]octan-8-yl}-2-oxoethyl)-1,2-dihydroisoquinolin-1-one], the IC50 in assay [1] is 100 to 1000 nM; in assay [2], no less than 1000 nM.

For the molecule `Cc1cc(C)n(C(=O)Cn2ccc3cccc(Nc4ccc5c(cnn5C)c4)c3c2=O)n1` [Example 98, 2-[2-(3,5-dimethyl-1H-pyrazol-1-yl)-2-oxoethyl]-8-[(1-methyl-1H-indazol-5-yl)amino]-1,2-dihydroisoquinolin-1-one], the IC50 in assay [1] and in assay [2] was 10 to 100 nM in each case.

Consider `Cn1ncc2cc(Nc3cccc4ccn(CC(=O)Nc5cncc(C(F)(F)F)c5)c(=O)c34)cnc21` [Example 99, 2-[8-({1-methyl-1H-pyrazolo[3,4-b]pyridine-5-5-yl}amino)1-oxo-1,2-dihydroisoquinolin-2-yl]-N-[5-(trifluoromethyl)pyridine-3-yl]acetamide], for which the IC50 in assay [1] and in assay [2] was 10 to 100 nM in each case.

As for `Cn1ncc2cc(Nc3cccc4ccn(CC(=O)Nc5cnoc5)c(=O)c34)cnc21` [Example 101], the IC50 is 10 to 100 nM in assay [1] and 100 to 1000 nM in assay [2].

In the case of `Cn1ncc2cc(Nc3cccc4ccn(CC(=O)Nc5cccc(C(C)(C)N)c5)c(=O)c34)ccc21` [Example 103], the IC50 was less than 10 nM in assay [1] and 10 to 100 nM in assay [2].

Take `CN(C)Cc1cccc(NC(=O)Cn2ccc3cccc(Nc4ccc5c(cnn5C)c4)c3c2=O)c1` [Example 104, N-{3-[(dimethylamino)methyl]phenyl}-2-{8-[(1-methyl-1H-indazol-5-yl)amino]-1-oxo-1,2-dihydroisoquinolin-2-yl}acetamide]: the IC50 in assay [1] is 10 to 100 nM; in assay [2] it was 100 to 1000 nM.

With `CN(C)Cc1ccc(NC(=O)Cn2ccc3cccc(Nc4ccc5c(cnn5C)c4)c3c2=O)cc1C(F)(F)F` [Example 112, N-[4-[(dimethylamino)methyl]-3-(trifluoromethyl)phenyl]-2-[8-[(1-methylindazol-5-yl)amino]-1-oxo-2-isoquinolyl]acetamide], the IC50 is less than 10 nM in assay [1] and 10 to 100 nM in assay [2].

As for `Cn1ncc2cc(Nc3cccc4ccn(CC(=O)NCC(F)(F)F)c(=O)c34)cc(C#N)c21` [Example 119, 2-(8-((7-cyano-1-methyl-1H-indazol-5-yl)amino)-1-oxoisoquinolin-2(1H)-yl)-N-(2,2,2-trifluoroethyl)acetamide], the IC50 in assay [1] was less than 10 nM; in assay [2] it was no less than 1000 nM.

Turning to `Cn1ncc2cc(Nc3cccc4ccn(CC(=O)N5CCCC(C(F)(F)F)C5)c(=O)c34)ccc21` (stereo not drawn) [Example 121], the figures for the IC50 in assay [1] and in assay [2] were 10 to 100 nM and 100 to 1000 nM, respectively.

As for `Cn1ncc2cc(Nc3cccc4ccn(CC(=O)NCC(F)(F)F)c(=O)c34)cc(C(N)=O)c21` [Example 125, 1-Methyl-5-[[1-oxo-2-[2-oxo-2-(2,2,2-trifluoroethylamino)ethyl]-8-isoquinolyl]amino]indazole-7-carboxamide], the IC50 in assay [1] is 100 to 1000 nM; in assay [2], no less than 1000 nM.

Regarding `Cn1ncc2cc(Nc3cccc4ccn(CC(=O)N5CCC[C@H]5C(F)F)c(=O)c34)ccc21` [Example 131, 2-[2-[(2S)-2-(difluoromethyl)pyrrolidin-1-yl]-2-oxo-ethyl]-8-[(1-methylindazol-5-yl)amino]isoquinolin-1-one], the IC50 in assay [1] is less than 10 nM; in assay [2] it was 10 to 100 nM.

Regarding `CN(C)CCc1ccc(NC(=O)Cn2ccc3cccc(Nc4ccc5c(cnn5C)c4)c3c2=O)cc1C(F)(F)F` [Example 133, N-[4-[(dimethylamino)ethyl]-3-(trifluoromethyl)phenyl]-2-[8-[(1-methylindazol-5-yl)amino]-1-oxo-2-isoquinolyl]acetamide], the IC50 in assay [1] was 10 to 100 nM; in assay [2], 100 to 1000 nM.

On to `Cn1ncc2cc(Nc3cccc4ccn(CC(=O)N5CCC[C@H]5CF)c(=O)c34)ccc21` [Example 136, 2-[2-[(2S)-2-(fluoromethyl)pyrrolidin-1-yl]-2-oxo-ethyl]-8-[(1-methylindazol-5-yl)amino]isoquinolin-1-one], for which the figures for the IC50 in assay [1] and in assay [2] were less than 10 nM and 10 to 100 nM, respectively.

On to `Cn1ncc2cc(Nc3cccc4ccn(CC(=O)NCC56CCCN5CCC6)c(=O)c34)ccc21` [Example 138], for which the IC50 in assay [1] and in assay [2] was no less than 1000 nM throughout.

For `CN(c1ccc2c(cnn2C)c1)c1cccc2ccn(CC(=O)Nc3cnoc3)c(=O)c12` [Example 140, N-isoxazol-4-yl-2-[8-[methyl-(1-methylindazol-5-yl)amino]-1-oxo-2-isoquinolyl]acetamide], the IC50 in assay [1] and in assay [2] was 10 to 100 nM in each case.

As for `CC(=O)C1CCCCN1C(=O)Cn1ccc2cccc(Nc3ccc4c(cnn4C)c3)c2c1=O` (stereo not drawn) [Example 141, 2-[2-(2-acetyl-1-piperidyl)-2-oxoethyl]-8-[(1-methylindazol-5-yl)amino]isoquinolin-1-one], the IC50 in assay [1] was 100 to 1000 nM; in assay [2], no less than 1000 nM.

In the case of `C[C@H](NC(=O)Cn1ccc2cccc(N(C)c3ccc4c(cnn4C)c3)c2c1=O)C(F)(F)F` [Example 143, 2-[8-[methyl-(1-methylindazol-5-yl)amino]-1-oxo-2-isoquinolyl]-N-[(1S)-2,2,2-trifluoro-1-methyl-ethyl]acetamide], the figures for the IC50 in assay [1] and in assay [2] were 10 to 100 nM and 100 to 1000 nM, respectively.

For the molecule `CN(c1ccc2c(cnn2C)c1)c1cccc2ccn(CC(=O)Nc3cccc(C(F)(F)F)c3)c(=O)c12` [Example 144, 2-[8-[methyl-(1-methylindazol-5-yl)amino]-1-oxo-2-isoquinolyl]-N-[3-(trifluoromethyl)phenyl]acetamide], the figures for the IC50 in assay [1] and in assay [2] were 10 to 100 nM and 100 to 1000 nM, respectively.

Consider `CN(C)Cc1cc(NC(=O)Cn2ccc3cccc(Nc4ccc5c(cnn5C)c4)c3c2=O)cc(C(F)(F)F)c1` [Example 154, N-[3-[(dimethylamino)methyl]-5-(trifluoromethyl)phenyl]-2-[8-[(1-methylindazol-5-yl)amino]-1-oxo-2-isoquinolyl]acetamide], for which the IC50 in assay [1] was less than 10 nM; in assay [2], 10 to 100 nM.

On to `Cc1n[nH]c2cc(Nc3cccc4ccn(CC(=O)Nc5cnoc5)c(=O)c34)ccc12` [Example 158, N-isoxazol-4-yl-2-[8-[(3-methyl-1H-indazol-6-yl)amino]-1-oxo-2-isoquinolyl]acetamide], for which the IC50 in assay [1] and in assay [2] was 10 to 100 nM in each case.

As to `Cc1n[nH]c2cc(Nc3cccc4ccn(CC(=O)Nc5cccc(C(F)(F)F)c5)c(=O)c34)ccc12` [Example 159, 2-[8-[(3-methyl-1H-indazol-6-yl)amino]-1-oxo-2-isoquinolyl]-N-[3-(trifluoromethyl)phenyl]acetamide], the IC50 in assay [1] was 10 to 100 nM; in assay [2], 100 to 1000 nM.

The values above are taken from US12692247B2, “Phenyl- and pyridopyrazole derivatives as inhibitors of DDR1” (Redx Pharma Limited, priority 2021, dated 2026).
